Experimental data published in paper PMC11161032 (ACS infectious diseases, 2023).

Assays:
T25E M^pro = type: biochemical, SARS-CoV-2
M49L M^pro = type: biochemical, SARS-CoV-2

Q: How did the “increase of Ki compared to wild-type” value (T25E M^pro) turn out when `Cn1cnc(Cn2c(=O)[nH]/c(=N\c3cc4cn(C)nc4cc3Cl)n(Cc3cc(F)c(F)cc3F)c2=O)n1` [ensitrelvir] was run?
A: 300 fold

Q: What about the “increase of Ki compared to wild-type” value (M49L M^pro) of the same molecule?
A: 40 fold

Q: What does the source list for `CC(C)(C)[C@H](NC(=O)C(F)(F)F)C(=O)N1C[C@H]2[C@@H]([C@H]1C(=O)N[C@H](C#N)C[C@@H]1CCNC1=O)C2(C)C` [nirmatrelvir]?
A: increase of Ki compared to wild-type (T25E M^pro): minimal to no observed impact on Ki; increase of Ki compared to wild-type (M49L M^pro): minimal to no observed impact on Ki
